For one data set, the target named is T1, FGFR3 (Homo sapiens, UniProt P22607).
T1 construct: purchased DiscoveRx Corporation
As to the kind of experiment: Enzyme binding assay (KINOMEscan) FGFR3. Particulars: pKd = -log Kd (M), read-out: FGFR3_pKd (converted). How it is done: (§1) Enzyme Binding Assays (KINOMEscan®)
(§2) Kinase enzyme binding affinities of compounds disclosed herein were determined using the KINOMEscan® technology performed by DiscoveRx Corporation, San Diego, Calif., USA (www.kinomescan.com).

The target in a further data set is T2, FGFR2 (Homo sapiens, UniProt P21802).
T2 construct: purchased DiscoveRx Corporation
As to the kind of experiment: Enzyme binding assay (KINOMEscan) FGFR2. Particulars: pKd = -log Kd (M), read-out: FGFR2_pKd (converted). How it is done:
as §1, §2

Data set [1] has as its target T3, Ba/F3-KDR-transfected cells (Homo sapiens, UniProt P35968, cells depend on it, form not given).
T3 construct: BAF3-KDR (MIN IL3 pIC50); other: minus IL3; 24 hours, Alamar Blue
The data set can be described thus: Ba/F3-KDR (minus IL3 or plus IL3) cellular proliferation assay. The data set is classed as cell-based. The settings on record: 24 hours, Alamar Blue. How it is done: Ba/F3-KDR (Minus IL3 or Plus IL3) (Cellular Proliferation Assay)
(§3) In a 384 well plate, 100 nl of compound dilution in DMSO was sprayed before adding 50 μl cell culture medium (phenol red free RPMI-1640, 10% FBS, 2 mM L-Glutamine and 50 μg/ml Gentamycin) containing 20000 cells per well of Ba/F3-KDR-transfected cells. Cells were put in an incubator at 37° C. and 5% CO2. After 24 hours, 10 μl of Alamar Blue solution (0.5 mM K3Fe(CN)6, 0.5 mM K4Fe(CN)6, 0.15 mM Resazurin and 100 mM Phosphate Buffer) was added to the wells, incubated for 4 hours at 37° C. and 5% CO2 before RFU's (Relative Fluorescence Units) (ex. 540 nm., em. 590 nm.) were measured in a fluorescence plate reader.
(§4) In this assay, the inhibitory effect of different compound concentrations (range 10 μM to 0.1 nM) was determined and used to calculate an IC50 (M) and pIC50 (−log IC50) value. As a counterscreen the same experiment was performed in the presence of 10 ng/ml murine IL3.
(In general: Resazurin is reduced to fluorescent resorufin, in cell work by metabolically active cells.)

For data set [2], the target named is T4, Ba/F3-FGFR3-transfected cells (Homo sapiens, UniProt P22607, cells depend on it, form not given).
T4 construct: BAF3-FGFR3 (MIN IL3 pIC50); other: minus IL3; 24 hours, Alamar Blue
The data set can be described thus: Ba/F3-FGFR3 (minus IL3 or plus IL3) cellular proliferation assay. The data set is classed as cell-based. The settings on record: 24 hours, Alamar Blue. Here is the method: Ba/F3-FGFR3 (Minus IL3 or Plus IL3) (Cellular Proliferation Assay)
as §3, with “Ba/F3-FGFR3-transfected” for “Ba/F3-KDR-transfected”
as §4

The target in another data set is T5, FGFR1 (Homo sapiens, UniProt P11362).
T5 construct: purchased DiscoveRx Corporation
The data set can be described thus: Enzyme binding assay (KINOMEscan) FGFR1. The settings on record: FGFR1_pKd, pKd = -log Kd (M). Here is the method: as §1, §2

The target in a further data set is T6, FGFR4 (Homo sapiens, UniProt P22455).
T6 construct: purchased DiscoveRx Corporation
As to the kind of experiment: Enzyme binding assay (KINOMEscan) FGFR4. The settings on record: pKd = -log Kd (M), read-out: FGFR4_pKd (converted). How it is done:
as §1, §2

The target in the next data set is FGFR1 (h) (Homo sapiens, UniProt P11362). As to the kind of experiment: FGFR1 (enzymatic assay), TR-FRET. It counts as biochemical. (In general: TR-FRET usually uses a lanthanide donor and a delayed reading to cut background.)
The target of another data set is FGFR2 (h) (Homo sapiens, UniProt P21802). As to the kind of experiment: FGFR2 (enzymatic assay), TR-FRET. It counts as biochemical. Particulars: 0.4 μM ATP; pIC50 = -log IC50 (M); read-out: FGFR 2 pIC50 (converted).
The target in data set [3] is Ba/F3-FGFR4-transfected cells (Homo sapiens, UniProt P22455, cells depend on it, form not given). As to the kind of experiment: Ba/F3-FGFR4 cellular proliferation assay. It counts as cell-based. Particulars: 24 hours, Alamar Blue. Here is the method: Ba/F3-FGFR4 (Cellular Proliferation Assay)
as §3, with “Ba/F3-FGFR4-transfected” for “Ba/F3-KDR-transfected”
In this assay, the inhibitory effect of different compound concentrations (range 10 μM to 0.1 nM) was determined and used to calculate an IC50 (M) and pIC50 (−log IC50) value.

A further data set deals with KDR (h) (Homo sapiens, UniProt P35968). The data set can be described thus: KDR (VEGFR2) (enzymatic assay), TR-FRET. The settings on record: 3 μM ATP; pIC50 = -log IC50 (M); read-out: VEGFR KDR pIC50 (converted). The data set is classed as biochemical. Here is the method: KDR (VEGFR2) (Enzymatic Assay)
In a final reaction volume of 30 μL, KDR (h) (150 ng/ml) was incubated with 50 mM HEPES pH 7.5, 6 mM MnCl2, 1 mM DTT, 0.1 mM Na3VO4, 0.01% Triton-X-100, 500 nM Btn-Flt3 and 3 μM ATP in the presence of compound (1% DMSO final). After incubation for 120 minutes at room temperature the reaction was stopped with 2.27 nM EU-anti P-Tyr, 7 mM EDTA, 31.25 nM SA-XL-665 and 0.02% BSA which was present for 60 minutes at room temperature. Time-Resolved Fluorescence Resonance Energy Transfer (TR-FRET) signal (ex340 nm. Em 620 nm, em 655 nm) was measured afterwards and results are expressed in RFU (Relative Fluorescence Units). In this assay, the inhibitory effect of different compound concentrations (range 10 μM to 0.1 nM) was determined and used to calculate an IC50 (M) and pIC50 (−log IC50) value.

Data set [4] addresses T7, Ba/F3-FGFR1-transfected cells (Homo sapiens, UniProt P11362).
T7 construct: other: minus IL3; 24 hours, Alamar Blue
As to the kind of experiment: Ba/F3-FGFR1 (minus IL3 or plus IL3) cellular proliferation assay. The data set is classed as cell-based. Particulars: 24 hours, Alamar Blue. How it is done: Ba/F3-FGFR1 (Minus IL3 or Plus IL3) (Cellular Proliferation Assay)
as §3, with “Ba/F3-FGFR1-transfected” for “Ba/F3-KDR-transfected”
as §4

For another data set, the target named is T8, VEGFR2 (Homo sapiens, UniProt P35968).
T8 construct: purchased DiscoveRx Corporation
As to the kind of experiment: Enzyme binding assay (KINOMEscan) VEGFR2. Particulars: pKd = -log Kd (M), read-out: VEGFR2_pKd (converted). Here is the method: as §1, §2

A further data set addresses FGFR4 (h) (Homo sapiens, UniProt P22455). As to the kind of experiment: FGFR4 (enzymatic assay), TR-FRET. Particulars: 5 μM ATP; pIC50 = -log IC50 (M); read-out: FGFR 4 pIC50 (converted). It counts as biochemical.
The target of a further data set is FGFR3 (h) (Homo sapiens, UniProt P22607). As to the kind of experiment: FGFR3 (enzymatic assay), TR-FRET. The data set is classed as biochemical. The settings on record: 25 μM ATP; pIC50 = -log IC50 (M); read-out: FGFR3 pIC50 (converted).

T3 sequence (P35968 whole entry, looked up, change not shown): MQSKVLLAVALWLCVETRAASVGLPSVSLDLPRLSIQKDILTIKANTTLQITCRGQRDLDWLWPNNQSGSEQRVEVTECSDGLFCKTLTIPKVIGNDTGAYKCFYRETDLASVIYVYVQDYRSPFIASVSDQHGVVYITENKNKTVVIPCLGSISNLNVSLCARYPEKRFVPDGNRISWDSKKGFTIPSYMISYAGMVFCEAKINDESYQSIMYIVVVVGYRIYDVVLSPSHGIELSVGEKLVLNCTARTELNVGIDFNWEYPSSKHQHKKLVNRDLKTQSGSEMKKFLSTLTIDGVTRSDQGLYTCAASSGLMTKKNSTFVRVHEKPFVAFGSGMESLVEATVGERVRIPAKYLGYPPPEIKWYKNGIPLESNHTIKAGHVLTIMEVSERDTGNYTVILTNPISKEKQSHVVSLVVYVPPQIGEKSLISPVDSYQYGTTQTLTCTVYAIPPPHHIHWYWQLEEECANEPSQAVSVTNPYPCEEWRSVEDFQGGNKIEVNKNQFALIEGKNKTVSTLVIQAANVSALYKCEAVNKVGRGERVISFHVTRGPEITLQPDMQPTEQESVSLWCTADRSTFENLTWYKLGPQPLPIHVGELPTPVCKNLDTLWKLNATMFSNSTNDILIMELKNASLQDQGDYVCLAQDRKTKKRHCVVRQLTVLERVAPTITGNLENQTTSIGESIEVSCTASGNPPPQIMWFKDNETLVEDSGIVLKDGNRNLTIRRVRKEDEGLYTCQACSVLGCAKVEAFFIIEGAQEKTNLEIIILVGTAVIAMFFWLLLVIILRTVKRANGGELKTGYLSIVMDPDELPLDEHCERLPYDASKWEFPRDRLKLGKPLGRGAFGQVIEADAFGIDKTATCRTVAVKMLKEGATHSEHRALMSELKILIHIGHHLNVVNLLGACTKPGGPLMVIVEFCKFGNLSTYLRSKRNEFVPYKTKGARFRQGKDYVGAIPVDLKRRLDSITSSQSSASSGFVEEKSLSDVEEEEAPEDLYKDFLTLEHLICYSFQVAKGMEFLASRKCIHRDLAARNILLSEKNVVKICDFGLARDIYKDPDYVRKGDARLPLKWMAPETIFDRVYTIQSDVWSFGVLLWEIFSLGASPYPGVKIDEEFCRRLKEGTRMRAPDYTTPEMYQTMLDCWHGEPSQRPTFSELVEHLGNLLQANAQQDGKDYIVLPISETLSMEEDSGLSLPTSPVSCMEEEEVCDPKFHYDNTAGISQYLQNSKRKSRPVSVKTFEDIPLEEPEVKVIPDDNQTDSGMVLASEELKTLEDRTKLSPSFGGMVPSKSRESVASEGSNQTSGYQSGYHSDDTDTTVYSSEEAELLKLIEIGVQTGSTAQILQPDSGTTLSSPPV
T7 sequence (P11362 whole entry, change not shown): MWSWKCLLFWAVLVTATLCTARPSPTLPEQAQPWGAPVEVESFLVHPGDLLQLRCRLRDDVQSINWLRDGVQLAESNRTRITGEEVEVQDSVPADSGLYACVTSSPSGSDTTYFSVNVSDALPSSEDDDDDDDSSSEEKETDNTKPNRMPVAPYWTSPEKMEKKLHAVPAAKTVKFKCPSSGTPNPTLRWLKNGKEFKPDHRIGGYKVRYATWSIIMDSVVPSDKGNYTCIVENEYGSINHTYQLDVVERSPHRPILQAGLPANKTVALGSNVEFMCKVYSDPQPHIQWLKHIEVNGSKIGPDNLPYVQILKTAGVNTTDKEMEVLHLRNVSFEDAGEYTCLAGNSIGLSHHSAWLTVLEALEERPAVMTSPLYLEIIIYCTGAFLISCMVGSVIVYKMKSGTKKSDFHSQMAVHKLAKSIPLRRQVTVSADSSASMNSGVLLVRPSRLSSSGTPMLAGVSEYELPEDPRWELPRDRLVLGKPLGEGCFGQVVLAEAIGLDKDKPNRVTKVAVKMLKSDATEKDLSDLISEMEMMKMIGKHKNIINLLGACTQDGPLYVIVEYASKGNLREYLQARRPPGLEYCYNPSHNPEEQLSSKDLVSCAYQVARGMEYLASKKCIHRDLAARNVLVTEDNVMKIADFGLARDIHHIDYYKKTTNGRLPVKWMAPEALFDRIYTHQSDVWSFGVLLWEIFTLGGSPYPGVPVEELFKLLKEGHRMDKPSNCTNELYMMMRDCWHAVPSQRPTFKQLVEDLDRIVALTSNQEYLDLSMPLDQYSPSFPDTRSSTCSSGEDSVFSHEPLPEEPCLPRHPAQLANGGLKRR
T8 sequence (P35968 20-1356): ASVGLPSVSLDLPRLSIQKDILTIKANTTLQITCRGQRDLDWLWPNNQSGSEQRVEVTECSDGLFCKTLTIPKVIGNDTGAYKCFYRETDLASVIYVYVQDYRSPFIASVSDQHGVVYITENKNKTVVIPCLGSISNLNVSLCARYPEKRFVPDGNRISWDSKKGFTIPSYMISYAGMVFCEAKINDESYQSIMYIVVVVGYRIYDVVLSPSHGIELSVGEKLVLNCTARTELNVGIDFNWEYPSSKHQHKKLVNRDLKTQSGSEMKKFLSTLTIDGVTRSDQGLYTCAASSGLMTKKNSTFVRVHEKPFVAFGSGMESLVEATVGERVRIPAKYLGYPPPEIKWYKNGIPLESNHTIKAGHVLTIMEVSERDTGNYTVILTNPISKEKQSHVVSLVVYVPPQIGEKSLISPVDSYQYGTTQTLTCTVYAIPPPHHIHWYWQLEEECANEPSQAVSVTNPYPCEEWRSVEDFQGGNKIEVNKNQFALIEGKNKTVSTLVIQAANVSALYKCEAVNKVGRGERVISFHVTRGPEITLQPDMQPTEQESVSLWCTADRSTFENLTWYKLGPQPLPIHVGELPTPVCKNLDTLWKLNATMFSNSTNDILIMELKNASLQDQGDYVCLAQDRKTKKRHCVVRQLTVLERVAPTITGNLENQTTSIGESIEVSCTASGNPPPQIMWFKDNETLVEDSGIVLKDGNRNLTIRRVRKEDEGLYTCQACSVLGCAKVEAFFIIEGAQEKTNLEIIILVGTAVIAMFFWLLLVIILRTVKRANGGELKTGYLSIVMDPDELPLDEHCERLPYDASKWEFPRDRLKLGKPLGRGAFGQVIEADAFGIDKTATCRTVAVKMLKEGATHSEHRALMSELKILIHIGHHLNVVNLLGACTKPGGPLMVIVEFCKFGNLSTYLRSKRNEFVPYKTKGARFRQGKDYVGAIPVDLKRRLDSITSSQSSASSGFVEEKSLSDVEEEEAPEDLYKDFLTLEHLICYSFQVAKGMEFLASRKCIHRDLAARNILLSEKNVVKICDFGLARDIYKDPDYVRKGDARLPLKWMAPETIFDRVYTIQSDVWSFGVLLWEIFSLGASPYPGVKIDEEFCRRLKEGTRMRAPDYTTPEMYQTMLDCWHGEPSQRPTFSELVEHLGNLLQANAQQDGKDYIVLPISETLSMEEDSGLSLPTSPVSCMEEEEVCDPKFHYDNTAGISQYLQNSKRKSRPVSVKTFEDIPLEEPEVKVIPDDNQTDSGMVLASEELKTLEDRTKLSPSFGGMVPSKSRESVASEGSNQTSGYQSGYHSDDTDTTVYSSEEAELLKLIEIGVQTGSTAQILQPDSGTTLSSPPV
KDR (h), sequence (P35968 20-1356): as above
T6 sequence (P22455 22-802): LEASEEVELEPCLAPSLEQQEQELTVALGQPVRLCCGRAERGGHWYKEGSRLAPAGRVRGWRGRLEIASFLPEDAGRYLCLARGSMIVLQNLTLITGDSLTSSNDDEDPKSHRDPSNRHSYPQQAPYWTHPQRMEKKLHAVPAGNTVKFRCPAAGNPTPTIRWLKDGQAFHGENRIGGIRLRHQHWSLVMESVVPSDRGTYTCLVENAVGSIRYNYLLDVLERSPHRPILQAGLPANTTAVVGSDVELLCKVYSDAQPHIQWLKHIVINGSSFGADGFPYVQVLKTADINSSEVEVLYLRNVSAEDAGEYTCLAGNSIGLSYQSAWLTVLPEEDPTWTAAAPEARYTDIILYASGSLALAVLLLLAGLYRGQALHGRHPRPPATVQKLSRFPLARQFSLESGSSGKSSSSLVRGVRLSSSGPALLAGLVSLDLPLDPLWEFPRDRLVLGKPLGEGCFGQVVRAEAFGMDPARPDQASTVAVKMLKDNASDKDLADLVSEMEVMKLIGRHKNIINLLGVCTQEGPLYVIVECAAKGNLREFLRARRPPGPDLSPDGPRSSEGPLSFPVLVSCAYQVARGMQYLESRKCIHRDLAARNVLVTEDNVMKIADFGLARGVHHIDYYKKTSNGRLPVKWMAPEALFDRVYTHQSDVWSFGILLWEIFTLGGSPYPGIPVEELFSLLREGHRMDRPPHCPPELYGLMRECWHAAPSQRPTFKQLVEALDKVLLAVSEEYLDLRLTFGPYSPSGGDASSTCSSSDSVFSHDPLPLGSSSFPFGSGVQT
FGFR4 (h), sequence (P22455 22-802): as above

Usually melting point stands for the temperature, or range, at which the solid turns liquid. Compound `COc1cc(OC)cc(N(CCO)c2ccc3ncn(-c4ccccc4)c(=O)c3c2)c1` [Compound 7] came in with a melting point of 171 °C. In addition, at FGFR3, the Kd is more than 1e-06 M. In addition, at FGFR2, the Kd was more than 1e-06 M. Further, in [1], the “BAF3-KDR (MIN IL3 pIC50)” value was less than 5. In addition, the “BAF3-FGFR3 (MIN IL3 pIC50)” value in data set [2] is less than 5. The Kd at FGFR1 was more than 1e-06 M. The Kd at FGFR4 was more than 1e-06 M. The compound further gave an IC50 against FGFR1 (h) of 631 nM. Also, on FGFR2 (h), the IC50 was 3.98e-07 M. Besides, the “BAF3-FGFR4 (pIC50)” value in [3] is on record as less than 5. At KDR (h), the IC50 was more than 1e-06 M. Also, the “BAF3-FGFR1 (MIN IL3 pIC50)” value in [4] is listed as less than 5. On VEGFR2, the Kd was more than 1e-06 M. At FGFR4 (h), the IC50 was 3.98e-06 M. Besides, at FGFR3 (h), the IC50 was 3.16e-07 M.

Consider `COc1cc(OC)c(F)c(N(CCNC(C)C)c2ccc3ncn(-c4cnn(C)c4)c(=O)c3c2)c1F` [Compound 19], for which the melting point is 162 °C. The Kd at FGFR3 is 5.01e-09 M. Also, at FGFR2, the Kd is 5.01e-09 M. In data set [1], the “BAF3-KDR (MIN IL3 pIC50)” value was determined as 6.2. The “BAF3-FGFR3 (MIN IL3 pIC50)” value in [2] is listed as 8.6. The Kd at FGFR1 is 1.58e-09 M. For the same compound, the Kd at FGFR4 was 5.01e-09 M. Besides, the IC50 on FGFR1 (h) is 5.01 nM. For the same compound, the IC50 on FGFR2 (h) is 1.58e-08 M. Also, the “BAF3-FGFR4 (pIC50)” value in [3] came to 8.2. On KDR (h), the IC50 is 1.26e-07 M. Also, the “BAF3-FGFR1 (MIN IL3 pIC50)” value in data set [4] stood at 8.8. The Kd at VEGFR2 was 1.58e-08 M. In addition, the IC50 at FGFR4 (h) is 2e-08 M. Also, the IC50 at FGFR3 (h) is 1.58e-08 M.

The record behind these values is US9493426B2, “Quinazolinone derivatives useful as FGFR kinase modulators” (priority 2013, dated 2016).
